Source: patent publication US12673945B2, “3-((8-((1H-pyrazol-4-yl)amino)imidazo[1,2-a]pyridin-3-yl)ethinyl)-n-phenylbenzamide derivative, method for preparing same, and pharmaceutical composition containing same as active ingredient for prevention or treatment of cancer” (DAEGU-GYEONGBUK MEDICAL INNOVATION FOUNDATION, priority 2020, dated 2026)

Legend:
KOPM28 cells = experiment: human CML cell proliferation inhibition; format: cell-based; conditions: 72 hours, Cell Counting Kit-8
Outline: (§1)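 TCCS and KOPM28 (Bcr-Abl) and their T315I-mutant counterparts, 1×10^4 cells/well, exposed 72 h at 37 °C to 9 fivefold dilutions of compound, final up to 10 μM. Viability by CCK-8 absorbance at 450 nm after 2 h; GI50 from percentage of vehicle.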

T315I-TCCS cells = experiment: human CML cell proliferation inhibition; format: cell-based; conditions: 72 hours, Cell Counting Kit-8
Outline: as §1

T315I-KOPM28 cells = experiment: human CML cell proliferation inhibition; format: cell-based; conditions: 72 hours, Cell Counting Kit-8
Outline: as §1

TCCS cells = experiment: human CML cell proliferation inhibition; format: cell-based; conditions: 72 hours, Cell Counting Kit-8
Outline: as §1

KIT(V559D, V654A) = molecular target: T1, KIT(V559D, V654A) (Homo sapiens, UniProt P10721, V559D/V654A); experiment: scanMAX Kinase panel (DiscoverX); format: binding; conditions: read-out: % Cont @ 1 uM
T1 construct: purchased DiscoverX scanMAX Kinase panel
Outline: (§2)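 The enzyme was exposed to 1 μM drug dissolved in DMSO; the value shown is % control, i.e. (test − positive control) divided by (negative control − positive control), multiplied by 100.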

FRK = molecular target: T2, FRK (Homo sapiens, UniProt P42685); experiment: scanMAX Kinase panel (DiscoverX); format: binding; conditions: read-out: % Cont @ 1 uM
T2 construct: purchased DiscoverX scanMAX Kinase panel
Outline: as §2

RET(M918T) = molecular target: T3, RET(M918T) (Homo sapiens, UniProt P07949, M918T); experiment: scanMAX Kinase panel (DiscoverX); format: binding; conditions: read-out: % Cont @ 1 uM
T3 construct: purchased DiscoverX scanMAX Kinase panel
Outline: as §2

CDC2L1 = molecular target: T4, CDC2L1 (Homo sapiens, UniProt P21127); experiment: scanMAX Kinase panel (DiscoverX); format: binding; conditions: read-out: % Cont @ 1 uM
T4 construct: purchased DiscoverX scanMAX Kinase panel
Outline: as §2

SRC = molecular target: T5, SRC (Homo sapiens, UniProt P12931); experiment: scanMAX Kinase panel (DiscoverX); format: binding; conditions: read-out: % Cont @ 1 uM
T5 construct: purchased DiscoverX scanMAX Kinase panel
Outline: as §2

[1] = molecular target: T6, ABL1(F317I)-phosphorylated (Homo sapiens, UniProt P00519, F317I); experiment: scanMAX Kinase panel (DiscoverX); format: binding; conditions: read-out: % Cont @ 1 uM
T6 construct: purchased DiscoverX
Outline: as §2

KIT(V559D, T670I) = molecular target: T7, KIT(V559D, T670I) (Homo sapiens, UniProt P10721, T670I/V559D); experiment: scanMAX Kinase panel (DiscoverX); format: binding; conditions: read-out: % Cont @ 1 uM
T7 construct: purchased DiscoverX scanMAX Kinase panel
Outline: as §2

FLT3(N841I) = molecular target: T8, FLT3(N841I) (Homo sapiens, UniProt P36888, N841I); experiment: scanMAX Kinase panel (DiscoverX); format: binding; conditions: read-out: % Cont @ 1 uM
T8 construct: purchased DiscoverX scanMAX Kinase panel
Outline: as §2

BRK = molecular target: T9, BRK (Homo sapiens, UniProt Q13882); experiment: scanMAX Kinase panel (DiscoverX); format: binding; conditions: read-out: % Cont @ 1 uM
T9 construct: purchased DiscoverX scanMAX Kinase panel
Outline: as §2

STK33 = molecular target: T10, STK33 (Homo sapiens, UniProt Q9BYT3); experiment: scanMAX Kinase panel (DiscoverX); format: binding; conditions: read-out: % Cont @ 1 uM
T10 construct: purchased DiscoverX scanMAX Kinase panel
Outline: as §2

EPHB2 = molecular target: T11, EPHB2 (Homo sapiens, UniProt P29323); experiment: scanMAX Kinase panel (DiscoverX); format: binding
T11 construct: purchased DiscoverX scanMAX Kinase panel
Outline: as §2

MLK1 = molecular target: T12, MLK1 (Homo sapiens, UniProt P80192); experiment: scanMAX Kinase panel (DiscoverX); format: binding; conditions: read-out: % Cont @ 1 uM
T12 construct: purchased DiscoverX scanMAX Kinase panel
Outline: as §2

MEK5 = molecular target: T13, MEK5 (Homo sapiens, UniProt Q13163); experiment: scanMAX Kinase panel (DiscoverX); format: binding; conditions: read-out: % Cont @ 1 uM
T13 construct: purchased DiscoverX scanMAX Kinase panel
Outline: as §2

FGFR4 = molecular target: T14, FGFR4 (Homo sapiens, UniProt P22455); experiment: scanMAX Kinase panel (DiscoverX); format: binding; conditions: read-out: % Cont @ 1 uM
T14 construct: purchased DiscoverX scanMAX Kinase panel
Outline: as §2

KIT(L576P) = molecular target: T15, KIT(L576P) (Homo sapiens, UniProt P10721, L576P); experiment: scanMAX Kinase panel (DiscoverX); format: binding; conditions: read-out: % Cont @ 1 uM
T15 construct: purchased DiscoverX scanMAX Kinase panel
Outline: as §2

LOK = molecular target: T16, LOK (Homo sapiens, UniProt O94804); experiment: scanMAX Kinase panel (DiscoverX); format: binding
T16 construct: purchased DiscoverX scanMAX Kinase panel
Outline: as §2

[2] = molecular target: T17, ABL1(H396P)-nonphosphorylated (Homo sapiens, UniProt P00519, H396P); experiment: scanMAX Kinase panel (DiscoverX); format: binding; conditions: read-out: % Cont @ 1 uM
T17 construct: purchased DiscoverX
Outline: as §2

STK35 = molecular target: T18, STK35 (Homo sapiens, UniProt Q8TDR2); experiment: scanMAX Kinase panel (DiscoverX); format: binding; conditions: read-out: % Cont @ 1 uM
T18 construct: purchased DiscoverX scanMAX Kinase panel
Outline: as §2

MAP4K5 = molecular target: T19, MAP4K5 (Homo sapiens, UniProt Q9Y4K4); experiment: scanMAX Kinase panel (DiscoverX); format: binding; conditions: read-out: % Cont @ 1 uM
T19 construct: purchased DiscoverX scanMAX Kinase panel
Outline: as §2

ERK8 = molecular target: T20, ERK8 (Homo sapiens, UniProt Q8TD08); experiment: scanMAX Kinase panel (DiscoverX); format: binding; conditions: read-out: % Cont @ 1 uM
T20 construct: purchased DiscoverX scanMAX Kinase panel
Outline: as §2

CSK = molecular target: T21, CSK (Homo sapiens, UniProt P41240); experiment: scanMAX Kinase panel (DiscoverX); format: binding
T21 construct: purchased DiscoverX scanMAX Kinase panel
Outline: as §2

TAK1 = molecular target: T22, TAK1 (Homo sapiens, UniProt O43318); experiment: scanMAX Kinase panel (DiscoverX); format: binding; conditions: read-out: % Cont @ 1 uM
T22 construct: purchased DiscoverX scanMAX Kinase panel
Outline: as §2

T16 sequence (O94804 whole entry): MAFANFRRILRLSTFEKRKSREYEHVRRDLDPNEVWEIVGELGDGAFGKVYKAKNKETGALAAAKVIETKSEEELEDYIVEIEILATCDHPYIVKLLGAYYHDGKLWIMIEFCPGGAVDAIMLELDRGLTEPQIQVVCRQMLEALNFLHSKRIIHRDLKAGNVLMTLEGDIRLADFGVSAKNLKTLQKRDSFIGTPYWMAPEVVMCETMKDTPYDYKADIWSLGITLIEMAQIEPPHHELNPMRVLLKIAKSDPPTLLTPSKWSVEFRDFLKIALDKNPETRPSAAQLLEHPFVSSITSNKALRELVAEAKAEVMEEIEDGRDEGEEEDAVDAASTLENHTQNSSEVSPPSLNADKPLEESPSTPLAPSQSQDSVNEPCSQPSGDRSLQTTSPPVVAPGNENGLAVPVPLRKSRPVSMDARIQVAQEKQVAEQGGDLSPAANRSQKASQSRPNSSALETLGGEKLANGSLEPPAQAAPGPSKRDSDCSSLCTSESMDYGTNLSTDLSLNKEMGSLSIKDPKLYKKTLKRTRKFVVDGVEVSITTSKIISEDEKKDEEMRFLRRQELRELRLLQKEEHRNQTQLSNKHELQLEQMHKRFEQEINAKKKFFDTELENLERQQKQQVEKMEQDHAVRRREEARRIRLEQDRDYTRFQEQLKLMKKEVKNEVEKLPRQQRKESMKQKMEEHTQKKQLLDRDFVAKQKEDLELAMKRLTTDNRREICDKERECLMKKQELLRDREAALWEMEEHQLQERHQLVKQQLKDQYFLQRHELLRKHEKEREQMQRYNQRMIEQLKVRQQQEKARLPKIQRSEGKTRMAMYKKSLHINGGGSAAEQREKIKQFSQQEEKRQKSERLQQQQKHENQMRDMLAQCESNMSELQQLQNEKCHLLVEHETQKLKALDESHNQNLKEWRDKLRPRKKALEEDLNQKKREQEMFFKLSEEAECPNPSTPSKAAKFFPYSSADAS
T4 sequence (P21127 whole entry): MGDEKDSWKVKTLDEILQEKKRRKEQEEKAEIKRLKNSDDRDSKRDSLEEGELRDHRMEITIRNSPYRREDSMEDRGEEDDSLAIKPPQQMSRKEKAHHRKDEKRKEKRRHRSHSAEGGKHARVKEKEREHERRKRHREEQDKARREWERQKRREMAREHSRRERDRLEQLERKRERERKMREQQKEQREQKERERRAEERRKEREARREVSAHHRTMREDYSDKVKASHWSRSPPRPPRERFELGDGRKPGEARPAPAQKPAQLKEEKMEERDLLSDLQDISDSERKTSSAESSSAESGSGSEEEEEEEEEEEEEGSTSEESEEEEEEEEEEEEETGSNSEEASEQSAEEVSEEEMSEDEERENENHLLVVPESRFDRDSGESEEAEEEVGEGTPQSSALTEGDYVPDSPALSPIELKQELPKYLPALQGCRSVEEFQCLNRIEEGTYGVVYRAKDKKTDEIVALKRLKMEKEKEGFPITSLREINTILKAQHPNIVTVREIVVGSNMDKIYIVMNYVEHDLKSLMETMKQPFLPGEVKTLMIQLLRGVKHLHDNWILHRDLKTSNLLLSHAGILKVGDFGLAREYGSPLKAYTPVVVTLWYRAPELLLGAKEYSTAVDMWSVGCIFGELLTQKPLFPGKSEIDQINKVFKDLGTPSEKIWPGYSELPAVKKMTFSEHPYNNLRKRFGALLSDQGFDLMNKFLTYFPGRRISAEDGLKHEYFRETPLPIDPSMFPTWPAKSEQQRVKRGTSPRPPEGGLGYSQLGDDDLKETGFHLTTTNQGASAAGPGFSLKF
T5 sequence (P12931 whole entry): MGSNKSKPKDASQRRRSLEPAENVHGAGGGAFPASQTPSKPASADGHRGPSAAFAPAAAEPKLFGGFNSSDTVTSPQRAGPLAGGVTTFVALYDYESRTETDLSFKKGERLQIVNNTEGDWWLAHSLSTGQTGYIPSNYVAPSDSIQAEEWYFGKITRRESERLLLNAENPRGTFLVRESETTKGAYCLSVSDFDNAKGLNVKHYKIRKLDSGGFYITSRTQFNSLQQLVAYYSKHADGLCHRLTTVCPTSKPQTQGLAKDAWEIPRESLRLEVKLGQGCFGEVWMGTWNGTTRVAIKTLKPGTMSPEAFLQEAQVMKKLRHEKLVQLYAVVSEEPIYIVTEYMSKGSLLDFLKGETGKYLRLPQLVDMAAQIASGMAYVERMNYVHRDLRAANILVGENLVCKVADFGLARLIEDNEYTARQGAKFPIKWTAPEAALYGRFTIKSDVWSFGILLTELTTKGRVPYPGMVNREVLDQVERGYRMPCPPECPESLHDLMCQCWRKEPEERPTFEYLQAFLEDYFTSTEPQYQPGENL
T19 sequence (Q9Y4K4 whole entry): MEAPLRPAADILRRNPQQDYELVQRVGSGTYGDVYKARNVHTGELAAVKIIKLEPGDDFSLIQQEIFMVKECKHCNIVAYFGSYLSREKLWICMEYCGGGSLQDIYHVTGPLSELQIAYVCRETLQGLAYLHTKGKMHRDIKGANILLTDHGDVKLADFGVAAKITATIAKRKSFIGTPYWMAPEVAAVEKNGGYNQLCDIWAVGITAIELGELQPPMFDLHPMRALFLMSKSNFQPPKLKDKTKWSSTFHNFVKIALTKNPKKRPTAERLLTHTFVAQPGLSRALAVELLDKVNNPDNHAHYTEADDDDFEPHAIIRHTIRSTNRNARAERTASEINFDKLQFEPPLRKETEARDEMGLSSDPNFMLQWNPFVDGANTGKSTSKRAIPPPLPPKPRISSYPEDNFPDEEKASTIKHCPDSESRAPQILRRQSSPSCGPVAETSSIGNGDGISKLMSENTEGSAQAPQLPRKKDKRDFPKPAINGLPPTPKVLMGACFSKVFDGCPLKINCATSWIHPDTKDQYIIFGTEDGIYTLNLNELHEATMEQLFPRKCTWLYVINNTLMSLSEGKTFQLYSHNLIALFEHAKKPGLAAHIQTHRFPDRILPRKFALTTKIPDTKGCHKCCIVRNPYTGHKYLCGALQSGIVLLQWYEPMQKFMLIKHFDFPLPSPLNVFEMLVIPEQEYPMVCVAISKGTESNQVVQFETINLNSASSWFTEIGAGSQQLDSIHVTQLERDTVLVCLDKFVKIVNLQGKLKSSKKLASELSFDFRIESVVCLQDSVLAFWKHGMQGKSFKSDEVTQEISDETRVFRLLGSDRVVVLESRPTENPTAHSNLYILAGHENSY
T14 sequence (P22455 22-802): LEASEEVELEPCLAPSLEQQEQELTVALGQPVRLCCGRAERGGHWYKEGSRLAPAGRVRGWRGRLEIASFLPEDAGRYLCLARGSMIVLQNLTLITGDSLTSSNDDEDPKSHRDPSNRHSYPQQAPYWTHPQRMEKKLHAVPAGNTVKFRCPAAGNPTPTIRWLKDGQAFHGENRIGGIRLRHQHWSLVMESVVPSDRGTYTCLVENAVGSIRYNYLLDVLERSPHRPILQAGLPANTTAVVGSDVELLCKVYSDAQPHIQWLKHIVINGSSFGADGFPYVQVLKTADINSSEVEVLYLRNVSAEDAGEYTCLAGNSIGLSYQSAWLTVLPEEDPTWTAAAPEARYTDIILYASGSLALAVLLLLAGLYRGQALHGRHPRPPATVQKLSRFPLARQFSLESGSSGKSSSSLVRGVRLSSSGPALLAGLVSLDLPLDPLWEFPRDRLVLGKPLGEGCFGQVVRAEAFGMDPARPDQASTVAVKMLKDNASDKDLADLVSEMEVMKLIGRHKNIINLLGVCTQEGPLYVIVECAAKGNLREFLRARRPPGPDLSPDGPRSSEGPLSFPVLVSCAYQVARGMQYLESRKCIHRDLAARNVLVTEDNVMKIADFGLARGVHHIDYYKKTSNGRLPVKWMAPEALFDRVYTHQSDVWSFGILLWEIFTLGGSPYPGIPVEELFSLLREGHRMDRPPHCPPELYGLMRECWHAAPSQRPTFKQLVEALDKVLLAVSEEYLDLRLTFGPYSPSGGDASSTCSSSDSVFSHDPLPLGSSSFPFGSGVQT
T7 sequence (P10721 26-976 V559D/T670I): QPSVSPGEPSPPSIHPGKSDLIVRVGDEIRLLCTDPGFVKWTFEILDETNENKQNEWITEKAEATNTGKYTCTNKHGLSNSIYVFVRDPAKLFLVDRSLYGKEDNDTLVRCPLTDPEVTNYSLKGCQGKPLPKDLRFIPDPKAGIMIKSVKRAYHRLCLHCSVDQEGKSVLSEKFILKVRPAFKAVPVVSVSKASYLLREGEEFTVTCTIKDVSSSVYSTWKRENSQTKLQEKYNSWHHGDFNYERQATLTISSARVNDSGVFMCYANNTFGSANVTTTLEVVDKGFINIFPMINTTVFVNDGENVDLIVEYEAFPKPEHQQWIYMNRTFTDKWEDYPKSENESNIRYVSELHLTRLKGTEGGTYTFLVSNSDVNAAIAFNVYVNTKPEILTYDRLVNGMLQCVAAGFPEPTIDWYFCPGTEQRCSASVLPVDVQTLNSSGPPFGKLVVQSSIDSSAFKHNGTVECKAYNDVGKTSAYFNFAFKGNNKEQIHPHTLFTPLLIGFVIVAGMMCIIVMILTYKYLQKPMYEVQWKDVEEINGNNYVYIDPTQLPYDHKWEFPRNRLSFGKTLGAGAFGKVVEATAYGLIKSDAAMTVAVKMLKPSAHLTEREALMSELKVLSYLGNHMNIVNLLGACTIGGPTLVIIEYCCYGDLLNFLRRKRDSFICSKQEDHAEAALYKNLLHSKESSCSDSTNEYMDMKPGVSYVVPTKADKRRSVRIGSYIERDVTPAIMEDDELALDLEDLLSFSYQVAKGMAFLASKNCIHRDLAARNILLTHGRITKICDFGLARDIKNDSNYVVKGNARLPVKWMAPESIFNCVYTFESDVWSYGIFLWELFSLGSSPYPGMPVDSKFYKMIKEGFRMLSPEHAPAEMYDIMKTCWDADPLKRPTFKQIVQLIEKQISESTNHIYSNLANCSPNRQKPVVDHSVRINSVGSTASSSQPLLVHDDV
T15 sequence (P10721 26-976 L576P): as the sequence (P10721 26-976 V559D/T670I) above, with D534V, L551P, I645T counted along it
T1 sequence (P10721 26-976 V559D/V654A): as the sequence (P10721 26-976 V559D/T670I) above, with V629A, I645T counted along it

In the case of `Cc1cn(-c2cc(NC(=O)c3cc(C#Cc4cnc5c(Nc6cnn(C)c6)cccn45)c(C)cc3F)cc(C(C)(C)C#N)c2)cn1` [Example 1, N-(3-(2-cyanopropane-2-yl)-5-(4-methyl-1H-imidazol-1-yl)phenyl)-2-fluoro-4-methyl-5-((8-((1-methyl-1H-pyrazol-4-yl)amino)imidazo[1,2-a]pyridin-3-yl)ethynyl)benzamide], the GI50 (KOPM28 cells) is reported as < 10 nM, the GI50 (T315I-TCCS cells) is reported as < 10 nM and the GI50 (T315I-KOPM28 cells) is reported as 100 nM. For the same compound, the GI50 (TCCS cells) was < 10 nM, the remaining binding at 1 µM (KIT(V559D, V654A)) was 2.9% and the remaining binding at 1 µM (FRK) was 1.6%. It also gave a remaining binding at 1 µM (RET(M918T)) of 0%, a remaining binding at 1 µM (CDC2L1) of 27% and a remaining binding at 1 µM (SRC) of 0.1%. It also gave a remaining binding at 1 µM [1] of 9.2%, a remaining binding at 1 µM (KIT(V559D, T670I)) of 1.2% and a remaining binding at 1 µM (FLT3(N841I)) of 0%. For the same compound, the remaining binding at 1 µM (BRK) was 13%, the remaining binding at 1 µM (STK33) was 12% and the “% Cont @ 1 uM” value (EPHB2) was 6.3%. The percent of control binding at 1 µM (MLK1) was 18%, the remaining binding at 1 µM (MEK5) was 0% and the remaining binding at 1 µM (FGFR4) was 2.8%. The remaining binding at 1 µM (KIT(L576P)) was 1.4%, the “% Cont @ 1 uM” value (LOK) was 0.05% and the remaining binding at 1 µM [2] was 1.2%. It also gave a remaining binding at 1 µM (STK35) of 10%, a remaining binding at 1 µM (MAP4K5) of 0.95% and a remaining binding at 1 µM (ERK8) of 19%. The “% Cont @ 1 uM” value (CSK) was 0.3% and the remaining binding at 1 µM (TAK1) was 4.3%.
With `Cc1cn(-c2cc(NC(=O)c3cc(C#Cc4cnc5c(Nc6cnn(C)c6)cccn45)c(C)cc3F)cc(C(F)(F)F)c2)cn1` [Example 4, 2-fluoro-4-methyl-N-(3-(4-methyl-1H-imidazol-1-yl)-5-(trifluoromethyl)phenyl)-5-((8-((1-methyl-1H-pyrazol-4-yl)amino)imidazo[1,2-a]pyridin-3-yl)ethynyl)benzamide] the GI50 (KOPM28 cells) was 100 nM, the GI50 (T315I-TCCS cells) was 100 nM and the GI50 (T315I-KOPM28 cells) was 100 nM. The GI50 (TCCS cells) was < 10 nM, the remaining binding at 1 µM (KIT(V559D, V654A)) was 12% and the remaining binding at 1 µM (FRK) was 26%. For the same compound, the remaining binding at 1 µM (RET(M918T)) was 0.95%, the remaining binding at 1 µM (CDC2L1) was 79% and the remaining binding at 1 µM (SRC) was 1.4%. The remaining binding at 1 µM [1] was 22%, the remaining binding at 1 µM (KIT(V559D, T670I)) was 12% and the remaining binding at 1 µM (FLT3(N841I)) was 0%. For the same compound, the remaining binding at 1 µM (BRK) was 78%, the remaining binding at 1 µM (STK33) was 76% and the “% Cont @ 1 uM” value (EPHB2) was 32%. It also gave a percent of control binding at 1 µM (MLK1) of 76%, a remaining binding at 1 µM (MEK5) of 1.2% and a remaining binding at 1 µM (FGFR4) of 53%. The remaining binding at 1 µM (KIT(L576P)) was 2.8%, the “% Cont @ 1 uM” value (LOK) was 0.2% and the remaining binding at 1 µM [2] was 2.9%. For the same compound, the remaining binding at 1 µM (STK35) was 94%, the remaining binding at 1 µM (MAP4K5) was 38% and the remaining binding at 1 µM (ERK8) was 90%. The “% Cont @ 1 uM” value (CSK) was 0.8% and the remaining binding at 1 µM (TAK1) was 50%.
